Experimental data published in patent US11051515B2, “3-acyl-benzamides and their use as herbicides” (Bayer Aktiengesellschaft, priority 2017, dated 2021).

Experiments:
ALOMY [1] = assay: Pre-emergence action against ALOMY; format: in vivo, Alopecurus myosuroides; conditions: dosage 320 g/ha, pre-emergence, scored visually after 3 weeks vs untreated controls, 100% = plants have died, 0% = like control plants
In short: (§1)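 Seeds sown in sandy loam in wood-fiber pots and covered with soil. Greenhouse growth; visual damage scored after 3 weeks versus untreated controls (100% = dead, 0% = like control).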

AVEFA = assay: Pre-emergence action against AVEFA; format: in vivo, Avena fatua; conditions: dosage 320 g/ha, scored visually after 3 weeks vs untreated controls
In short: as §1

DIGSA [2] = assay: Pre-emergence action against DIGSA; format: in vivo, Digitaria sanguinalis; conditions: dosage 320 g/ha, scored visually after 3 weeks vs untreated controls
In short: as §1

ECHCG [3] = assay: Pre-emergence action against ECHCG; format: in vivo, Echinochloa crus-galli; conditions: pre-emergence, dosage 320 g/ha, scored visually after 3 weeks vs untreated controls
In short: as §1

SETVI [4] = assay: Pre-emergence action against SETVI; format: in vivo, Setaria viridis; conditions: pre-emergence, dosage 320 g/ha, scored visually after 3 weeks vs untreated controls
In short: as §1

ABUTH [5] = assay: Pre-emergence action against ABUTH; format: in vivo, Abutilon theophrasti; conditions: pre-emergence, dosage 320 g/ha, scored visually after 3 weeks vs untreated controls
In short: as §1

AMARE [6] = assay: Pre-emergence action against AMARE; format: in vivo, Amaranthus retroflexus; conditions: pre-emergence, dosage 320 g/ha, scored visually after 3 weeks vs untreated controls
In short: as §1

MATIN [7] = assay: Pre-emergence action against MATIN; format: in vivo, Matricaria inodora; conditions: Dosage 320 g/ha, pre-emergence
In short: as §1

PHBPU [8] = assay: Pre-emergence action against PHBPU; format: in vivo, Pharbitis purpurea; conditions: Dosage 320 g/ha, pre-emergence
In short: as §1

POLCO [9] = assay: Pre-emergence action against POLCO; format: in vivo, Polygonum convolvulus; conditions: Fallopia convolvulus, 504 h; Dosage 320 g/ha, pre-emergence
In short: as §1

STEME [10] = assay: Pre-emergence action against STEME; format: in vivo, Stellaria media; conditions: Dosage 320 g/ha, pre-emergence
In short: as §1

VIOTR [11] = assay: Pre-emergence action against VIOTR; format: in vivo, Viola tricolor; conditions: Dosage 320 g/ha, pre-emergence
In short: as §1

VERPE [12] = assay: Pre-emergence action against VERPE; format: in vivo, Veronica persica; conditions: Dosage 320 g/ha, pre-emergence
In short: as §1

HORMU = assay: Pre-emergence action against HORMU; format: in vivo, Hordeum murinum; conditions: Hordeum murinum, 504 h, Dosage 320 g/ha
In short: as §1

DIGSA [13] = assay: Post-emergence action against DIGSA; format: in vivo, Digitaria sanguinalis; conditions: dosage 80 g/ha, visual assessment about 3 weeks after treatment vs untreated controls
Experimental: Seeds of monocotyledonous and dicotyledonous weed and crop plants are laid out in sandy loam soil in wood-fiber pots, covered with soil and cultivated in a greenhouse under good growth conditions. 2 to 3 weeks after sowing, the test plants are treated at the one-leaf stage. The compounds of the invention, formulated in the form of wettable powders (WP) or as emulsion concentrates (EC), are then sprayed onto the green parts of the plants in the form of an aqueous suspension or emulsion at a water application rate equating to […], with addition of 0.2% wetting agent. After the test plants have been left to stand in the greenhouse under optimal growth conditions for about 3 weeks, the action of the preparations is assessed visually in comparison to untreated controls (herbicidal action in percent (%): 100% activity=the plants have died, 0% activity=like control plants). […] At the same time, inventive compounds leave Gramineae crops such as barley, wheat, rye, millet/Sorghum, corn or rice virtually undamaged when applied post-emergence, even at high active ingredient dosages. In addition, some substances are also harmless to dicotyledonous crops such as soya, cotton, oilseed rape, sugar beet or potatoes. Some of the compounds according to the invention have high selectivity and are therefore suitable for controlling unwanted vegetation in agricultural crops by the post-emergence method. The data of Tables B18 to B34 below illustrate, in an exemplary manner, the […] herbicidal action of the compounds according to the invention, the herbicidal activity being stated in percent.

ECHCG [14] = assay: Post-emergence action against ECHCG; format: in vivo, Echinochloa crus-galli; conditions: post-emergence, dosage 80 g/ha, visual assessment about 3 weeks after treatment vs untreated controls
In short: (§2)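 Post-emergence foliar spray on greenhouse plants at the one-leaf stage, using wettable-powder or emulsion-concentrate formulations in water (600 to […], plus 0.2% wetting agent). Damage scored by eye roughly 3 weeks later against untreated plants: 0% = like control, 100% = dead.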

SETVI [15] = assay: Post-emergence action against SETVI; format: in vivo, Setaria viridis; conditions: post-emergence, dosage 80 g/ha, visual assessment about 3 weeks after treatment vs untreated controls
In short: as §2

ABUTH [16] = assay: Post-emergence action against ABUTH; format: in vivo, Abutilon theophrasti; conditions: post-emergence, dosage 80 g/ha, visual assessment about 3 weeks after treatment vs untreated controls
In short: as §2

AMARE [17] = assay: Post-emergence action against AMARE; format: in vivo, Amaranthus retroflexus; conditions: post-emergence, dosage 80 g/ha, visual assessment about 3 weeks after treatment vs untreated controls
In short: as §2

MATIN [18] = assay: Post-emergence action against MATIN; format: in vivo, Matricaria inodora; conditions: post-emergence, dosage 80 g/ha, visual assessment about 3 weeks after treatment vs untreated controls
In short: as §2

PHBPU [19] = assay: Post-emergence action against PHBPU; format: in vivo, Pharbitis purpurea; conditions: post-emergence, dosage 80 g/ha
In short: as §2

STEME [20] = assay: Post-emergence action against STEME; format: in vivo, Stellaria media; conditions: post-emergence, dosage 80 g/ha
In short: as §2

VIOTR [21] = assay: Post-emergence action against VIOTR; format: in vivo, Viola tricolor; conditions: post-emergence, dosage 80 g/ha
In short: as §2

VERPE [22] = assay: Post-emergence action against VERPE; format: in vivo, Veronica persica; conditions: dosage 80 g/ha
In short: as §2

LOLRI = assay: Pre-emergence action against LOLRI; format: in vivo, Lolium rigidum; conditions: dosage 320 g/ha, scored visually after 3 weeks vs untreated controls
In short: as §1

ALOMY [23] = assay: Post-emergence action against ALOMY; format: in vivo, Alopecurus myosuroides; conditions: Dosage 80 g/ha, post-emergence
In short: as §2

POLCO [24] = assay: Post-emergence action against POLCO; format: in vivo, Polygonum convolvulus; conditions: post-emergence, dosage 80 g/ha
In short: as §2

## CC(=O)C(=O)c1c(C(F)(F)F)ccc(C(=O)Nc2nnnn2C)c1Cl [1-146]
ALOMY [1]; Alopecurus myosuroides, 504 h, read-out: Pre-emergence action against ALOMY (herbicidal activity in percent)
  pest or weed control at 320 g/ha: 90%
AVEFA; Avena fatua, 504 h, read-out: Pre-emergence action against AVEFA (herbicidal activity)
  pest or weed control at 320 g/ha: 90%
DIGSA [2]
  Pre-emergence action against DIGSA (herbicidal activity): 100%
ECHCG [3]; Echinochloa crus-galli, 504 h, read-out: Pre-emergence action against ECHCG (herbicidal activity)
  pest or weed control at 320 g/ha: 100%
SETVI [4]; Setaria viridis, 504 h, read-out: SETVI (Table B8, pre-emergence herbicidal activity)
  pest or weed control at 320 g/ha: 100%
ABUTH [5]; Abutilon theophrasti, 504 h, read-out: Pre-emergence action against ABUTH (herbicidal activity)
  pest or weed control at 320 g/ha: 100%
AMARE [6]; Amaranthus retroflexus, 504 h, read-out: Pre-emergence action against AMARE (herbicidal activity)
  pest or weed control at 320 g/ha: 100%
MATIN [7]; Tripleurospermum inodorum, 504 h
  pest or weed control at 320 g/ha: 100%
PHBPU [8]; Ipomoea purpurea, 504 h
  pest or weed control at 320 g/ha: 90%
POLCO [9]
  pest or weed control at 320 g/ha: 80%
STEME [10]; Stellaria media, 504 h
  pest or weed control at 320 g/ha: 100%
VIOTR [11]; Viola tricolor, 504 h
  pest or weed control at 320 g/ha: 100%
VERPE [12]; Veronica persica, 504 h
  pest or weed control at 320 g/ha: 90%
HORMU
  pest or weed control at 320 g/ha: 80%
DIGSA [13]
  Post-emergence action against DIGSA (herbicidal action in percent): 80%
ECHCG [14]; Echinochloa crus-galli, 504 h, read-out: Post-emergence action against ECHCG (herbicidal action in percent)
  pest or weed control at 80 g/ha: 100%
SETVI [15]; Setaria viridis, 504 h, read-out: Post-emergence action against SETVI (herbicidal action in percent)
  pest or weed control at 80 g/ha: 100%
ABUTH [16]; Abutilon theophrasti, 504 h, read-out: Post-emergence action against ABUTH (herbicidal action in percent)
  pest or weed control at 80 g/ha: 100%
AMARE [17]; Amaranthus retroflexus, 504 h, read-out: Post-emergence action against AMARE (herbicidal action in percent)
  pest or weed control at 80 g/ha: 100%
MATIN [18]; Tripleurospermum inodorum, 504 h, read-out: Post-emergence action against MATIN (herbicidal action in percent)
  pest or weed control at 80 g/ha: 90%
PHBPU [19]; Ipomoea purpurea, 504 h
  pest or weed control at 80 g/ha: 80%
STEME [20]; Stellaria media, 504 h
  pest or weed control at 80 g/ha: 100%
VIOTR [21]; Viola tricolor, 504 h
  pest or weed control at 80 g/ha: 90%
VERPE [22]; Veronica persica, 504 h
  pest or weed control at 80 g/ha: 90%

## Cn1nnnc1NC(=O)c1ccc(C(F)(F)F)c(C(=O)C2CCC2)c1Cl [1-153]
ALOMY [1]
  Pre-emergence action against ALOMY (herbicidal activity in percent): 90%
AVEFA
  Pre-emergence action against AVEFA (herbicidal activity): 80%
DIGSA [2]
  Pre-emergence action against DIGSA (herbicidal activity): 100%
ECHCG [3]
  Pre-emergence action against ECHCG (herbicidal activity): 90%
LOLRI
  Pre-emergence action against LOLRI (herbicidal activity): 90%
SETVI [4]
  SETVI (Table B8, pre-emergence herbicidal activity): 100%
ABUTH [5]
  Pre-emergence action against ABUTH (herbicidal activity): 100%
AMARE [6]
  Pre-emergence action against AMARE (herbicidal activity): 100%
MATIN [7]
  Pre-emergence action against MATIN: 100%
PHBPU [8]
  Pre-emergence action against PHBPU: 80%
STEME [10]
  Pre-emergence action against STEME: 100%
VIOTR [11]
  Pre-emergence action against VIOTR: 100%
VERPE [12]
  Pre-emergence action against VERPE: 100%
ALOMY [23]
  Post-emergence action against ALOMY: 80%
DIGSA [13]
  Post-emergence action against DIGSA (herbicidal action in percent): 90%
ECHCG [14]
  Post-emergence action against ECHCG (herbicidal action in percent): 90%
SETVI [15]
  Post-emergence action against SETVI (herbicidal action in percent): 100%
ABUTH [16]
  Post-emergence action against ABUTH (herbicidal action in percent): 100%
AMARE [17]
  Post-emergence action against AMARE (herbicidal action in percent): 100%
MATIN [18]
  Post-emergence action against MATIN (herbicidal action in percent): 100%
PHBPU [19]
  Post-emergence action against PHBPU: 90
POLCO [24]
  Post-emergence action against POLCO: 80
STEME [20]
  Post-emergence action against STEME: 100
VIOTR [21]
  Post-emergence action against VIOTR: 80
VERPE [22]
  Post-emergence action against VERPE: 80
